# Experiments:
# [1] = system: Lb. acidophilus; test: Survival of probiotic bacteria during the drying process; assay type: cell-based; conditions: acid used as the weak acid in the mix
# Description: The pH of the final product will dictate the type of weak acid to be utilised.
# [2] = system: experimental animals; conditions: cited from earlier work
Compound,Viability of probiotic bacteria during the drying process [1],Hazard to man or animals ([2]; at the level succinic acid occurs naturally in foods),Amount tolerated by experimental animals ([2]; experimental animals)
O=C1O[C@H]([C@@H](O)CO)C(O)=C1O [Ascorbic acid],has not effect,,
"O=C(O)CCC(=O)O [succinic acid, butanedioic acid]",has not effect,no evidence that it is hazardous,several

# Source: patent US11576416B2, “Method of producing microparticles of the type having a crosslinked, aggregated protein matrix by spray drying” (Anabio Technologies Limited, priority 2015, dated 2023)
